Assay [1] deals with DA uptake in rat synaptosomes. Also noted: method as in PMID 25788711. The conditions noted are these: read-out: Potency for inhibition of DA uptake; cited from earlier work.
For assay [2], the target named is T1, WT hDAT (Homo sapiens, UniProt Q01959). Description: Tat-induced inhibition of specific [3H]WIN35,428 binding in CHO cells transfected with WT hDAT. Also on record: synthetic cDNA encoding hDAT subcloned into pcDNA3.1 +; expressed in transfected cells; host or cells: CHO cells (ATCC CRL-61), transient, Lipofectamine 2000, pcDNA3.1+. The protocol: CHO cells transfected with WT hDAT were incubated with [^3H]WIN 35,428 (final concentration, 5 nM) with or without recombinant Tat1–86 (rTat1–86) (40 nM, final concentration) on ice for 2 h. […] Data for rTat1–86 and SRI-30827 + rTat1–86 are expressed as the percentage of their respective controls in the absence of rTat1–86 (15675 ± 2982 DPM) and SRI-30827 (14041 ± 3212 DPM) n = 5. *p < 0.05 compared with control value.
PC12 cells were maintained in the incubator (37 °C, 5% CO2) with DMEM medium supplemented with horse serum (15%) and bovine calf serum (2.5%), glutamine (2 mM), and penicillin-streptomycin (100 U/ml). Chinese hamster ovary cells (CHO cells, ATCC, CRL-61) were maintained in F12 medium with 10% fetal bovine serum and antibiotics (100 U/mL penicillin and 100 µg/mL streptomycin). For hDATs transfection, cells were seeded into poly-D-lysine-coated 24 well plates at a density of 1 × 10^5 cells/well. After 24 h, cells were transfected with WT or mutant DAT plasmids using Lipofectamine 2000 (Life Tech, Carlsbad, CA) based on the manufacturer’s instruction. Cells were used for the experiments after 24 h of transfection.

In a further assay the target is T2, Y470F-hDAT (Homo sapiens, UniProt Q01959, Y470F).
T2 construct: synthetic cDNA encoding hDAT subcloned into pcDNA3.1 +; expressed in transfected cells; host or cells: PC12 cells (ATCC CRL-1721), transient, Lipofectamine 2000, pcDNA3.1+
The assay is described as follows: Competitive inhibition [3H]DA uptake assay in transfected PC12 cells. Format: cell-based. The conditions noted are these: SRI-20041 12.8 µM. The source says:
(§1) Results are presented as mean ± SEM, and n represents the number of independent experiments for each experiment group.

Assay [3] deals with T1, WT hDAT. The description is as above. Format: cell-based. Also on record: synthetic cDNA encoding hDAT subcloned into pcDNA3.1 +; expressed in transfected cells; host or cells: PC12 cells (ATCC CRL-1721), transient, Lipofectamine 2000, pcDNA3.1+. The conditions noted are these: SRI-20041 12.8 µM.
Text: as §1

T1 sequence (Q01959 whole entry): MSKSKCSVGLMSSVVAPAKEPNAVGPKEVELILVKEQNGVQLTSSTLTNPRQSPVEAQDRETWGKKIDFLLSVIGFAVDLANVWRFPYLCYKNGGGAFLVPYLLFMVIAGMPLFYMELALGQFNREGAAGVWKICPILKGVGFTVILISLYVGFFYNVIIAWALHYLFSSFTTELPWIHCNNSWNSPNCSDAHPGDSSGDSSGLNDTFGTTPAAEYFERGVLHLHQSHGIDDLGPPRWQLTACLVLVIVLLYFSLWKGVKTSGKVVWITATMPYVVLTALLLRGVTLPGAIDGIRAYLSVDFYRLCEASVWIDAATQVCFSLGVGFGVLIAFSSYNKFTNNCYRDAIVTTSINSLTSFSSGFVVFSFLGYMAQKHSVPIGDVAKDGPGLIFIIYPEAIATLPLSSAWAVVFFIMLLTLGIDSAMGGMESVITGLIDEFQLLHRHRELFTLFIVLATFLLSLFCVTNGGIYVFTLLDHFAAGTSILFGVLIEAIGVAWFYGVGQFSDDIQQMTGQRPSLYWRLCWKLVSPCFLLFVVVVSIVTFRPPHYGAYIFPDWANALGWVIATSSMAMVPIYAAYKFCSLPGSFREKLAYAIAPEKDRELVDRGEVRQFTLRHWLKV
T2 sequence (Q01959 whole entry Y470F): as the sequence (Q01959 whole entry) above, with Y470F counted along it

On to `Cc1cc2nccn2cc1-c1nc(NCC(c2ccccc2)c2ccccc2)c2ccccc2n1` [SRI-30827], for which, in assay [1], the IC50 is 0.5 nM. Moreover, on WT hDAT [2] (SRI-30827 50 nM alone), the “Effect on the specific [3H]WIN35,428 binding” value is “did not alter”. Also, the “Specific [3H]WIN35,428 binding” value on WT hDAT [2] (SRI-30827 50 nM in the absence of rTat1–86, CHO cells, n = 5) was determined as 14041 ± 3212 DPM.
Regarding `c1ccc(-c2nc(NCCC(c3ccccc3)c3ccccc3)c3ccccc3n2)cc1` [SRI-20041], the “Increase of cocaine IC50 of [3H]DA uptake” value was ~ 40% on Y470F-hDAT and ~ 35% on WT hDAT [3].

Values taken from publication PMC5473888 (Scientific Reports, 2017).
